Measured values taken from patent publication US11857601B2, “Pharmaceutical composition for cancer treatment comprising fusion protein including IL-2 protein and CD80 protein and anticancer drug” (GI INNOVATION, INC., priority 2020, dated 2024).
Marks after values point to notes of the source that are not given here.

How the values were obtained:
IL-2Rα = target: T1, IL-2Rα (Homo sapiens, UniProt P01589); test: Binding to IL-2Rα (Octet, AR2G biosensor); details: as compared with GI101w and Proleukin
T1 construct: purchased Acro ILA-H52H9
T1 sequence (P01589 22-272): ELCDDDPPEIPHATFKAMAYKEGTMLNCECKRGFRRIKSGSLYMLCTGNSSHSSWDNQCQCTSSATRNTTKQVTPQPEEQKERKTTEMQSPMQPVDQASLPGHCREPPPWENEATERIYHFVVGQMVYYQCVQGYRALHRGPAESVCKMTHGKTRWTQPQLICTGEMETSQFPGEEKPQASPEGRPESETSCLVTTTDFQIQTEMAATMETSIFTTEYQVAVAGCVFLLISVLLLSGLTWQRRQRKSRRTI
Method: The binding ability for IL-2Rα was measured using the AR2G biosensor, and the binding ability for IL-2Rβ was measured using the Ni-NTA biosensors (Nickel charged Tris-NTA, Ni-NTA Biosensors, ForteBio, 18-5101).
A ligand (IL-2Rα-His Tag, Acro, Cat: ILA-H52H9) to be attached to the AR2G biosensor was diluted with 10 mM acetate buffer (pH 5, AR2G reagent Kit, ForteBio, Cat: 18-5095) to a concentration of 5 μg/ml. The AR2G biosensor was activated with a buffer prepared by mixing 400 mM EDC and 100 mM sulfo-NHS, and then the diluted ligand was loaded on the AR2G biosensor for 300 seconds and fixed.
Thereafter, GI101, GI101w, or Proleukin (Novartis, hIL-2), at various concentrations, to be attached to the ligand was loaded thereon for 300 seconds. Then, binding thereof was measured and dissociation thereof was also measured for 300 seconds. Binding kinetics analysis was performed using Octet Data Analysis HT software ver. 10 provided by Pall Corporation. The results are illustrated in FIGS. 22 to 24.

CT26 cells = test: mGI-101 and Axitinib in CT26 allotransplanted tumor model; details: mGI-101 3 mg/kg IP, Axitinib 30 mg/kg PO;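 note: subcutaneous CT26 syngeneic tumors in male BALB/c mice, dosing started once tumors were near 50 mm^3, drugs given orally or intraperitoneally for up to 3 weeks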
Method: Mouse-derived colorectal cancer cells, CT26 (Mus musculus, Colon adenocarcinoma), and mouse-derived lung cancer cells, LL/2 (Mus musculus, Lung adenocarcinoma), were purchased from ATCC (USA) and used for the test. The cells to be used for the test were thawed, mixed with RPMI1640 (A1049101, Thermofisher scientific) medium containing 10% FBS (fetal bovine serum, Gibco, 10082-147), and then placed in a cell culture flask, and cultured in a 37° C., 5% CO2 incubator. The cells were washed with PBS, and then the cells were isolated using Trypsin-EDTA (15090, Gibco), and centrifugation (125×g, 5 minutes) was performed to discard the supernatant, and then the cells were suspended in a new medium to obtain the cell suspension. The viability of the cells was identified, and then a cell line was prepared by diluting in a medium to a concentration of 5.0×10^6 cells/mL.
6-week-old male BALB/cAnHsd mice or C57BL/6NHsd mice were purchased and used for the test. After the end of the acclimation period of 7 days, the cells were transplanted into healthy animals. The cell suspension (5×10^6 cells/mL) was dispensed, and filled into a disposable syringe, and transplantation of the suspension was performed by subcutaneous administration at 0.1 mL/head in the right dorsal region of the animals. General symptoms were observed once a day during the engraftment and growth period after cell line transplantation.
After the inoculation of the cell line was performed, when the tumor size at the site to which the cell line was transplanted reached about 50 mm^3, the tumor size of each group was distributed as uniformly as possible according to the ranked tumor size.
The test substance was administered orally or intraperitoneally, and administered for 3 weeks depending on the composition of the test group. In the case of oral administration, the animals were fixed with the cervical spine skin fixation method, and administered directly into the stomach using a sonde for oral administration. In the case of intraperitoneal administration, the animals were fixed with the cervical spine skin fixation method, and administered intraperitoneally using a syringe equipped with a 26 gauge needle. The administration rate was not to exceed 200 μl/min.
Syngeneic model was prepared by subcutaneously transplanting the CT26 cell line into Balb/c mice, and then the test substance was administered to evaluate the anticancer effect.

EMT6 cells = test: mGI-101 and Paclitaxel in EMT6 allotransplanted tumor model; assay type: in vivo, BALB/c mice
Method: EMT6 cells were purchased from ATCC (USA) and cultured in Waymouth MB 751/1 medium (WELGENE) containing 10% FBS (Gibco) and 1% antibiotic/antifungal agent (Gibco). The cultured cells were harvested using trypsin (Gibco), and then a high-concentration cell suspension (2×10^6 cells/0.4 mL) for 10 mice was prepare with PBS and stored on ice until injected into mice. In order to establish an allotransplanted tumor model, the skin was incised slightly away from the 4th nipple position from the upper right of the ventral region of BALB/c female mice (7-week-old), and the location of mammary fat pad at the incised site was identified, and then EMT6 cell line prepared inside the mammary fat pad was injected at 2×10^5 cells/40 uL/head.
A certain period of time after cell inoculation of the tumor grafts of the mice, the tumor volume was measured for animals with no abnormalities in the health condition of the animals, and the subjects were selected so that the average of each group reached less than 70-100 mm^3, and the selected animals were assigned as evenly as possible based on tumor volume and body weight, each group including 10 animals. As shown in Table 24 and FIG. 106, the test groups were configured and the test substances were administered.
Clinical symptoms such as a disease and a behavioral change were observed once a day during the test period, and deceased animals were identified, and the mice were sacrificed when the tumor size reached a size of 4,000 mm^3.
The tumor volume before administration of each subject was set as the value measured at the time of grouping, and the anti-tumor efficacy was evaluated as compared with the vehicle control.
All statistical calculations were performed using Prism 8.0 (Graph Pad Software Inc, USA). The comparison of tumor volume measurements was made through two-way analysis of variance followed by Tukey's multiple comparison test. A p value of less than 0.05 was considered significant.

[1] = test system: CT26 (mouse colon carcinoma) cells; test: mGI-101 and Galunisertib in CT26 allotransplanted tumor model; assay type: in vivo, BALB/cAnHsd mice; details: mean ± SD, mGI-101 3 mg/kg IP, Galunisertib 75 mg/kg PO
Method: 6-week-old male BALB/cAnHsd mice were purchased and used for the test.
The tumor size was measured three times a week for 3 weeks from the day of start of administration of the test substance. The major axis and minor axis of the tumor were measured using a caliper, and the tumor size (tumor volume, TV) was calculated using the following equations. TV (mm^3)=(W^2×L)/2 [Equation 1]

MC38 = test: mGI101 and anti-PD-1 antibody in MC38 allotransplanted tumor model; assay type: in vivo, C57BL/6 mice
Method: Rodent-derived colorectal cancer cells, MC38, were purchased from Kerafast (USA) and used for the test. MC38 cells were cultured in RPMI1640 medium (Gibco) containing 10% fetal bovine serum (Gibco) and 1% antibiotic/antifungal agent (Gibco). The cultured cells were harvested using trypsin and then suspended in PBS. In order to establish an allotransplanted tumor model, 1×10^6 MC38 cells were subcutaneously injected into the right flank of C57BL/6 female mice (7-week-old).
The mice were randomly assigned based on tumor volume (30 mm^3), each group including 5 mice. The tumor grafts were identified about day 2 after cell inoculation.
Clinical symptoms such as a disease and a behavioral change were observed once a day during the test period, and deceased animals were identified. At the end of the test period, the animals were sacrificed. The size of the MC38 solid cancer was measured using a tumor 3D scanner (TM900, Peria, Belgium). […] The anti-tumor efficacy was evaluated as compared with the vehicle control. All statistical calculations were performed using Prism 8.0 (Graph Pad Software Inc, USA). The comparison of tumor volume measurements was made through one-way analysis of variance (at the end of this test) followed by Bonferroni's multiple comparison test. A p value of less than 0.05 was considered significant.

GI101: fusion protein: human CD80 fragment, Ig hinge, Fc domain, linker, IL-2 variant (2M) (R38A, F42A); SEQ ID NO: 9
binding ability for the IL-2 receptor IL-2Rα (IL-2Rα): low binding ability

mGI101: fusion protein: mouse CD80, Ig hinge, Fc domain, linker, IL-2 variant (2M) (R38A, F42A); SEQ ID NO: 15
Tumor size (CT26 cells; Day 0, mean ± SD): 63.53 ± 11.56 mm^3
Tumor growth inhibition (CT26 cells; Day 5, mean ± SD): 58.32 ± 24.95 %
Tumor size (CT26 cells; Day 5, mean ± SD): 186.53 ± 76.61 mm^3
Tumor growth inhibition (CT26 cells; Day 7, mean ± SD): 62.12 ± 38.89 %
Tumor size (CT26 cells; Day 7, mean ± SD): 249.93 ± 149.08 mm^3
Tumor growth inhibition (CT26 cells; Day 9, mean ± SD): 62.87 ± 34.95 %
Tumor size (CT26 cells; Day 9, mean ± SD): 290.71 ± 165.17 mm^3
Tumor growth inhibition (CT26 cells; Day 12, mean ± SD): 66.48 ± 29.50 %
Tumor size (CT26 cells; Day 12, mean ± SD): 352.46 ± 195.64 mm^3
Tumor growth inhibition (CT26 cells; Day 14, mean ± SD): 65.87 ± 29.12 %
Tumor size (CT26 cells; Day 14, mean ± SD): 520.04 ± 307.47** mm^3
Tumor growth inhibition (CT26 cells; Day 16, mean ± SD): 52.36 ± 41.33 %
Tumor size (CT26 cells; Day 16, mean ± SD): 962.28 ± 634.90** mm^3
Tumor growth inhibition (CT26 cells; Day 19, mean ± SD): 41.48 ± 52.17 %
Tumor size (CT26 cells; Day 19, mean ± SD): 1395.48 ± 982.61** mm^3
Tumor growth inhibition (CT26 cells; Day 21, mean ± SD): 44.57 ± 46.55 %
Tumor size (CT26 cells; Day 21, mean ± SD): 1987.45 ± 1320.62**** mm^3
number of mice with tumor growth inhibition rate of 30% or more (EMT6 cells; EMT6, 10 animals per group): 6 mice
number of mice with tumor growth inhibition rate of 50% or more (EMT6 cells; EMT6, 10 animals per group): 5 mice
number of mice with tumor growth inhibition rate of 80% or more (EMT6 cells; EMT6, 10 animals per group): 5 mice
tumor size level vs control (EMT6 cells; day 11, mGI-101 3 mg/kg i.v. QW, Paclitaxel 10 mg/kg i.p. 7 consecutive days): statistically significantly lower
mice with complete remission (EMT6 cells; day 13, 10 animals per group): 2 mice
tumor size vs control (EMT6 cells; day 13, mGI-101 3 mg/kg i.v. QW, Paclitaxel 10 mg/kg i.p. 7 consecutive days): statistically significantly lower
Tumor size ([1]; Day 0): 61.96 ± 11.81 mm^3
Tumor growth inhibition ([1]; Day 2): 21.91 ± 53.41%
Tumor size ([1]; Day 2): 177.83 ± 78.22 mm^3
Tumor growth inhibition ([1]; Day 4): 46.07 ± 35.1 %
Tumor size ([1]; Day 4): 224.56 ± 105.31** mm^3
Tumor growth inhibition ([1]; Day 7): 46.48 ± 36.39 (9) %
Tumor size ([1]; Day 7): 291.81 ± 155.23 (9)* mm^3
anticancer effect / anti-tumor efficacy (MC38; 16 days, mGI101 6 mpk alone, anti-PD-1 5 mpk, combination mGI101 0.6 mpk + anti-PD-1 5 mpk, vs control): anticancer effect was also shown
individual tumor sizes (MC38; mGI101 6 mpk alone (compared with anti-PD-1 group), anti-PD-1 5 mpk, combination 0.6 mpk + 5 mpk): more excellent tumor growth inhibitory effect
health state of test animals after administration (MC38; mGI101 alone and in combination with anti-PD-1 antibody, i.p.): healthy state without signs of pathological abnormalities
